Laboratory results taken from patent US20260335293A1, “USE OF NOVEL COMPOUND FOR TREATING INTRACTABLE DISEASES” (YJ CERAPEUTICS INC., priority 2023, published 2026).

Tests used:
sedation = test: Sedation as side effect of the drug; type: in vivo, Sprague-Dawley rats; settings: 100 mg/kg
NGF / proNGF = test: NGF mRNA and proNGF in bladder tissue of SCI model, RT-PCR and Western blot; type: in vivo, Sprague-Dawley rats; settings: bladder tissue after SCI
Method: In order to confirm the effect of YJ102 (Chemical Formula 1), a compound of the present disclosure, on urinary disturbances caused by spinal cord injury, immediately after preparing the traumatic spinal cord injury (SCI) model (FIG. 1A) prepared in Example 1 above, YJ102 was dissolved in DMSO, methyl pyrrolidinone, and water (1:1.5:1) and administered intraperitoneally at 5 mg/kg, and then intraperitoneally administered at 24-hour intervals for 7 days from the next day. Thereafter, the effect of improving bladder functions was analyzed through a residual urine volume test and a urinary bladder function score (UBFS). At this time, a Vehicle group was administered with the same amount of a solution of DMSO, methyl pyrrolidinone, and water. Specifically, in order to determine the amount of urine remaining in the bladder after spinal cord injury, bladder extrusion was performed twice a day by applying pressure to the central bottom portion of the lower abdomen using the index and middle fingers to empty the bladder, and the expelled urine was collected in a catheter and its volume was recorded. […]

[1] = system: ED-1-positive macrophages; test: Introduction of macrophages (ED-1) into bladder of SCI model, immunofluorescence; type: in vivo, Sprague-Dawley rats; settings: day 7 after SCI
[2] = system: inflammatory cytokines and chemokines in bladder tissue; test: Inflammatory factor expression in bladder of SCI model, RT-PCR and Western blot; type: in vivo, Sprague-Dawley rats; settings: bladder after SCI
Method: In order to confirm the effect of YJ102 (Chemical Formula 1), a compound of the present disclosure, on urinary disturbances caused by spinal cord injury, immediately after preparing the traumatic spinal cord injury (SCI) model (FIG. 1A) prepared in Example 1 above, YJ102 was dissolved in DMSO, methyl pyrrolidinone, and water (1:1.5:1) and administered intraperitoneally at 5 mg/kg, and then intraperitoneally administered at 24-hour intervals for 7 days from the next day. Thereafter, the effect of improving bladder functions was analyzed through a residual urine volume test and a urinary bladder function score (UBFS). At this time, a Vehicle group was administered with the same amount of a solution of DMSO, methyl pyrrolidinone, and water. Specifically, in order to determine the amount of urine remaining in the bladder after spinal cord injury, bladder extrusion was performed twice a day by applying pressure to the central bottom portion of the lower abdomen using the index and middle fingers to empty the bladder, and the expelled urine was collected in a catheter and its volume was recorded. In addition, the UBFS was assessed daily using a 0-4 point UBFS (0=total loss of function (manual bladder extrusion 3 times a day, bloody urine), 1=partial restoration of UBF (manual extrusion 2 times a day, bloody urine), 2=partial restoration of UBF (partial/complete release of sphincter spasm, manual extrusion once a day, persistently bloody urine), 3=high restoration (manual extrusion once a day, no bloody urine), and 4=normal UBF) as in the reference (Zeng et al., Spinal Cord (2017) 55:834-839).
(§1) To confirm the effect of YJ102 on the expression of inflammatory factors in the bladder after spinal cord injury, the expression of inflammatory cytokines and chemokines, COX-2, iNOS, IL-6, IL-1β, MIP-1α, MIP-1β, MIP-2a, and Gro-α in bladder tissue was confirmed by RT-PCR analysis and Western blot analysis using the primers in Table 2 above. In addition, even in the Raw 264.7 cell line, the expression was verified by RT-PCR analysis.

Occludin = test: Tight junction protein Occludin in bladder of SCI model, Western blot and immunofluorescence; type: in vivo, Sprague-Dawley rats
[3] = system: psoriasis (IMQ psoriasis animal model); test: Erythema and scaling (PASI) in IMQ psoriasis model; type: in vivo, C57BL/6 mouse
Method: Psoriasis caused by excessive production of skin cells was a chronic skin disease associated with various factors, including autoimmune diseases, and its symptoms included red and thickened skin and abnormally occurring scaling. […] Specifically, the back region of a C57BL/6 mouse (male, 18 to 20 g, 8 weeks) (Daehan Biolink, Eumseong, Korea) was shaved to remove hair, and then applied with IMQ cream (83 mg/day) (5%) for consecutive 5 days from Day 0 to Day 4 to induce psoriasis-like skin inflammation, and a normal control mouse (Sham) was applied with Vaseline cream (FIG. 16A).
In order to confirm the effect of YJ102 (Chemical Formula 1), a compound of the present disclosure, on psoriasis, YJ102 dissolved in DMSO, methyl pyrrolidinone, and water (1:1.5:1) was administered intraperitoneally (5 mg/kg) for a total of 3 days on Day 2, Day 3, and Day 4, and the Vehicle group was administered in the same amount of a solution of DMSO, methyl pyrrolidinone, and water (1:1.5:1) (FIG. 16A). To assess daily skin changes, PASI scores were used for erythema and scaling. The PASI score was evaluated as a severity scale of 0 to 4, in which 0 meant none, 1 meant mild, 2 meant moderate, 3 meant severe, and 4 meant very severe. (PASI Reference: Yashpal Manchanda, Abhishek De, Sudip Das, and Disha Chakraborty. Disease Assessment in Psoriasis. Indian J Dermatol. 2023 May-June; 68 (3): 278-281.)

[4] = system: inflammatory factors in Raw 264.7 cell line; test: Inflammatory factor mRNA in LPS-stimulated Raw 264.7 macrophage cell line, RT-PCR; type: cell-based; settings: LPS-treated Raw 264.7, RT-PCR
Method: (§2) In order to determine whether YJ102 affected the production of proNGF as a ligand of p75, the expression of proNGF in the bladder was confirmed by RT-PCR, Western blot analysis, and immunofluorescence staining. In addition, for further verification, a macrophage cell line Raw 264.7 (Korea Cell Line Bank, Seoul, Korea) was stimulated with 1 μg/ml of LPS, and the effect of YJ102 on the production of proNGF was investigated. At this time, YJ102 was dissolved in DMSO and treated 30 minutes before LPS treatment.
as §1

TRPM7 = TRPM7 expression in SNI model, Western blot; type: in vivo, Sprague-Dawley rats; settings: 4 weeks after nerve injury
Method: FIG. 5C is a diagram showing results of analyzing the expression of TRMP7 in an SNI animal model by Western blot.
To determine through which signaling pathway YJ102 inhibited a neuroinflammatory response, there was analyzed increased expression and activation of histone demethylase JMJD3 and expression changes of factors associated with JAK/STAT3 pathway, mTOR pathway, and TRPM7-mediated pathway, which were known as important regulatory mechanisms and epigenetic regulators mediating the neuroinflammatory response, in the tissues of the SNI animal model 4 weeks after nerve injury.

ZO-1 = test: Tight junction protein ZO-1 in bladder of SCI model, Western blot; type: in vivo, Sprague-Dawley rats; settings: SCI day 1, Western blot
[5] = system: proNGF in Raw 264.7 macrophage cell line; test: proNGF expression in LPS-stimulated Raw 264.7 macrophage cell line; type: cell-based; settings: LPS 1 μg/ml; YJ102 30 minutes before LPS
Method: as §2

p75 = p75 expression in urothelium of SCI model, RT-PCR and Western blot; type: in vivo, Sprague-Dawley rats; settings: after SCI
caspase-3 = test: Caspase-3 activation (cleaved caspase-3) in urothelium of SCI model, Western blot; type: in vivo, Sprague-Dawley rats; settings: day 3 after SCI
[6] = 5 mg/kg i.p. Days 2-4, vs Vehicle

CCc1ccc(N(C(=O)COC)c2nc3cc(Cl)ccc3o2)cc1 [YJ102]
sedation (sedation): sedation was not observed | NGF mRNA expression (NGF / proNGF): significantly inhibited | proNGF production (NGF / proNGF): significantly inhibited | introduction of ED-1-positive macrophages into the bladder [1]: significantly inhibited | expression of COX-2 [2]: significantly reduced | expression of Gro-α [2]: significantly reduced | expression of IL-1β [2]: significantly reduced | expression of IL-6 [2]: significantly reduced | expression of MIP-1B [2]: significantly reduced | expression of MIP-1 a [2]: significantly reduced | expression of MIP-2a [2]: significantly reduced | expression of iNOS [2]: significantly reduced | reduction in amount of Occludin (Occludin; SCI day 1, Western blot): significantly inhibited | reduction in Occludin in the urothelium (Occludin; after SCI, immunofluorescence): inhibited | symptoms (erythema and scaling) on Day 6 ([3]; 5 mg/kg i.p. Days 2-4, Day 6): appeared to be alleviated | degree of erythema (PASI) [3, 6]: significantly lower than that of the Vehicle group | degree of scaling (PASI) [3, 6]: significantly lower than that of the Vehicle group | mRNA level of COX-2 [4]: significantly reduced | mRNA level of IL-1β [4]: significantly reduced | mRNA level of IL-6 [4]: significantly reduced | mRNA level of TNF-α [4]: significantly reduced | mRNA level of iNOS [4]: significantly reduced | expression of TRPM7 (TRPM7): inhibited the expression | reduction in amount of ZO-1 (ZO-1): significantly inhibited | mRNA expression of proNGF [5]: significantly inhibited | protein expression of proNGF [5]: significantly inhibited | p75 expression (p75; RT-PCR (mRNA)): significantly reduced | p75 expression (p75; Western blot (protein)): significantly reduced | caspase-3 activation (caspase-3): inhibited
